Source: PubChem BioAssay (NCI)
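Assay format: 96-well plates, 48-hour exposure. TGI denotes the concentration required for complete inhibition of growth.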

Legend:
Assay in all cases: NCI anticancer screen, dose series, 48 h
HCT-15 colon = test system: HCT-15 colon
DU-145 prostate = test system: DU-145 prostate
ACHN renal = test system: ACHN renal
SF-268 CNS = test system: SF-268 CNS
U251 CNS = test system: U251 CNS
EKVX NSCLC = test system: EKVX NSCLC
SW-620 colon = test system: SW-620 colon
RXF 393 renal = test system: RXF 393 renal
LOX IMVI melanoma = test system: LOX IMVI melanoma
SK-MEL-5 melanoma = test system: SK-MEL-5 melanoma
786-0 renal = test system: 786-0 renal
NCI-H460 lung = test system: NCI-H460 lung
UACC-257 melanoma = test system: UACC-257 melanoma
HCT-116 colon = test system: HCT-116 colon
MOLT-4 leukemia = test system: MOLT-4 leukemia
MCF7 breast = test system: MCF7 breast
MDA-MB-231 breast = test system: MDA-MB-231 breast
NCI-H226 lung = test system: NCI-H226 lung
SK-OV-3 ovarian = test system: SK-OV-3 ovarian
MDA-MB-435 = test system: MDA-MB-435
UO-31 renal = test system: UO-31 renal
HOP-92 NSCLC = test system: HOP-92 NSCLC
T-47D breast = test system: T-47D breast
UACC-62 melanoma = test system: UACC-62 melanoma
SK-MEL-2 melanoma = test system: SK-MEL-2 melanoma
M14 melanoma = test system: M14 melanoma
SN12C renal = test system: SN12C renal
SNB-19 CNS = test system: SNB-19 CNS
NCI/ADR-RES ovarian = test system: NCI/ADR-RES ovarian
HOP-62 NSCLC = test system: HOP-62 NSCLC
TK-10 renal = test system: TK-10 renal
MALME-3M melanoma = test system: MALME-3M melanoma
HS 578T breast = test system: HS 578T breast
KM12 colon = test system: KM12 colon
HT29 colon = test system: HT29 colon
SK-MEL-28 melanoma = test system: SK-MEL-28 melanoma
IGROV1 ovarian = test system: IGROV1 ovarian
SF-539 CNS = test system: SF-539 CNS
OVCAR-3 ovarian = test system: OVCAR-3 ovarian
CAKI-1 renal = test system: CAKI-1 renal
NCI-H23 lung = test system: NCI-H23 lung
OVCAR-8 ovarian = test system: OVCAR-8 ovarian
PC-3 prostate = test system: PC-3 prostate
A549 NSCLC = test system: A549 NSCLC
SF-295 CNS = test system: SF-295 CNS
COLO 205 colon = test system: COLO 205 colon
RPMI-8226 leukemia = test system: RPMI-8226 leukemia
OVCAR-5 ovarian = test system: OVCAR-5 ovarian
MDA-N = test system: MDA-N
OVCAR-4 ovarian = test system: OVCAR-4 ovarian
HCC-2998 colon = test system: HCC-2998 colon
NCI-H522 lung = test system: NCI-H522 lung
SNB-75 CNS = test system: SNB-75 CNS
CCRF-CEM leukemia = test system: CCRF-CEM leukemia
A498 renal = test system: A498 renal
K-562 leukemia = test system: K-562 leukemia
HL-60(TB) leukemia = test system: HL-60(TB) leukemia

Measured: TGI

CC(C)(NO)/C(=N\O)c1ccco1
> 100 µM: HCT-15 colon | DU-145 prostate | ACHN renal | SF-268 CNS | U251 CNS | EKVX NSCLC | SW-620 colon | RXF 393 renal | LOX IMVI melanoma | SK-MEL-5 melanoma | 786-0 renal | NCI-H460 lung | UACC-257 melanoma | HCT-116 colon | MCF7 breast | MDA-MB-231 breast | NCI-H226 lung | SK-OV-3 ovarian | MDA-MB-435 | UO-31 renal | HOP-92 NSCLC | T-47D breast | UACC-62 melanoma | SK-MEL-2 melanoma | M14 melanoma | SN12C renal | SNB-19 CNS | NCI/ADR-RES ovarian | HOP-62 NSCLC | TK-10 renal | MALME-3M melanoma | HS 578T breast | KM12 colon | HT29 colon | SK-MEL-28 melanoma | IGROV1 ovarian | SF-539 CNS | OVCAR-3 ovarian | CAKI-1 renal | NCI-H23 lung | OVCAR-8 ovarian | PC-3 prostate | A549 NSCLC | SF-295 CNS | COLO 205 colon | RPMI-8226 leukemia | OVCAR-5 ovarian | MDA-N | OVCAR-4 ovarian | HCC-2998 colon
40.8 µM: MOLT-4 leukemia

Cc1ccc(/C=C2\CN(C)CC3=C2NC(=S)NC3c2ccc(C)cc2)cc1 (stereo not given)
68 µM: SNB-75 CNS | NCI/ADR-RES ovarian
> 100 µM: HCT-15 colon | DU-145 prostate | ACHN renal | NCI-H522 lung | SF-268 CNS | A498 renal | U251 CNS | EKVX NSCLC | SW-620 colon | RXF 393 renal | LOX IMVI melanoma | SK-MEL-5 melanoma | NCI-H460 lung | MDA-MB-231 breast | NCI-H226 lung | SK-OV-3 ovarian | UO-31 renal | T-47D breast | UACC-62 melanoma | SK-MEL-2 melanoma | M14 melanoma | SN12C renal | SNB-19 CNS | HOP-62 NSCLC | MALME-3M melanoma | HS 578T breast | SK-MEL-28 melanoma | IGROV1 ovarian | SF-539 CNS | CAKI-1 renal | NCI-H23 lung | OVCAR-8 ovarian | PC-3 prostate | A549 NSCLC | SF-295 CNS | OVCAR-5 ovarian
61.4 µM: HL-60(TB) leukemia
60.1 µM: HCT-116 colon
80.4 µM: HT29 colon
78.9 µM: HCC-2998 colon
82.4 µM: CCRF-CEM leukemia
62.5 µM: OVCAR-3 ovarian
62 µM: UACC-257 melanoma
28.1 µM: MDA-MB-435
36.7 µM: MDA-N
46 µM: COLO 205 colon
77.8 µM: 786-0 renal
82.8 µM: HOP-92 NSCLC
39 µM: KM12 colon
67.1 µM: OVCAR-4 ovarian
72.3 µM: MCF7 breast
56.9 µM: K-562 leukemia
